No end group written: not given here.
How the values were obtained:
Assay type in all cases: biochemical
[1] = biological target: Superoxide radical; test: Superoxide dismutase (SOD) activity, xanthine oxidase/NBT assay; conditions: for SOD activity (inhibition of NBT reduction): xanthine oxidase assay, pH 10.2, 1.2 µM EDTA
Method: The SOD activity of copper complexes of the tetrapeptide L-Asp L-Ala L-His L-Lys [SEQ ID NO:1] was assayed. Superoxide radicals were produced using the xanthine oxidase assay of Beauchamp and Fridovich, Anal. Biochem., 44:276-287 (1971). Xanthine oxidase converts xanthine into uric acid, with oxygen acting as an electron acceptor. This causes superoxide radical to be produced. Superoxide radical is able to reduce nitro blue tetrazolium (NBT). Reduced NBT has a λmax of 560 nm. It is known that copper inhibits xanthine oxidase activity (Konstantinova et al., Free Rad. Res. Comms., 12-13:215-220 (1991)), so all experiments containing copper also contained ethylenediaminetetracetic acid (EDTA), a known copper chelator.
To perform the assay for SOD activity, 0.1 mM xanthine (Sigma Chemical Co.), 25 µM NBT (Sigma Chemical Co.), 50 mM sodium carbonate, and 1.2 µM EDTA (Sigma Chemical Co.), were mixed in a cuvette (all final concentrations, final pH 10.2). The reaction was started by the addition of various amounts of a tetrapeptide-copper complex (tetrapeptide/copper ratios of 1:1 and 2:1) and 20 nM xanthine oxidase (Sigma Chemical Co.). The tetrapeptide-copper complex was prepared by mixing the tetrapeptide and copper (as CuCl2) and allowing the mixture to incubate for 15 minutes at room temperature immediately before addition to the cuvette. The samples were read at time 0 and every 60 seconds for five minutes at 560 nm.

[2] = biological target: T1, xanthine oxidase (Bos taurus, UniProt P80457); test: Uric acid production at 295 nm (check for interference with xanthine oxidase activity); conditions: concentration of 600 nM; data not shown
T1 construct: purchased Sigma Chemical Co
Method: Athar et al., Biochem. Mol. Biol. Int., 39(4):813-821 (1996); Ciuffi et al., Pharmacol Res., 38(4):279-287 (1998). This assay is similar to the SOD assay, except that NBT is not present. Instead, uric acid is assayed at 295 nm every 60 seconds for 5 minutes. […] Since superoxide is converted to hydrogen peroxide by the complex, this could help to explain why it is not effective at preventing hydroxyl radical production.

[3] = tested on: Superoxide radical; test: Superoxide radical production, NBT reduction with copper and ascorbate; conditions: 37°C, read at 560 nm at 5, 15, 30 and 60 minutes, maximum decreased for the 1:1 complex
Method: Superoxide radical production was measured in solutions containing the 1:1 or 2:1 tetrapeptide-copper complexes. The assay combined techniques from the TBA assay and the xanthine oxidase assay. NBT was added to all test tubes in order to quantitate its reduction by superoxide radical. The samples also contained ascorbate and copper and were incubated at 37°C. At 5,15,30 and 60 minutes, the samples were removed from the incubator and read at 560 nm. In the sample containing the 2:1 tetrapeptide-copper complex, NBT reduction increased over time and reached a maximum at 3 0 minutes.

[4] = tested on: hydroxyl radicals; test: Inhibition of hydroxyl radical production, Cu(II)/ascorbic acid deoxyribose TBA assay (Example 10); conditions: compound/copper 2:1; for % Inhibition: percent decrease in absorbance compared to buffer alone
Method: The ability of the compounds listed above to inhibit the generation of hydroxyl radicals was tested as described in Gutteridge and Wilkins, Biochim. Biophys. Acta, 759:38-41 (1983). Briefly, Cu(II) and ascorbic acid were mixed causing the generation of hydroxyl radicals. Then, deoxyribose was added, and the hydroxyl radicals, if present, attacked the deoxyribose to produce fragments. […]. Thus, absorbance at 532 nm is a measure of the damage to deoxyribose and, therefore, of hydroxyl radical formation.
To perform the assay, CuCl2 in buffer (20 mM KH2PO4 buffer, pH 7.4) and either one of the test compounds in buffer or buffer alone were added to test tubes (final concentration of CuCl2 was 10µM). The test tubes were incubated for 15 minutes at room temperature. Then, 0.5 mM ascorbic acid in buffer and 1.9 mM 2-deoxy-D-ribose in buffer were added to each test tube, and the test tubes were incubated for 1 hour at 37°C. Finally, 1 ml of 1% (w/v) TBA in 50 mM NaOH and 1 ml of concentrated acetic acid were added to each test tube, and the test tubes were incubated in boiling water for 15 minutes. After the test tubes had cooled for 15 minutes, the absorbance at 532 nm was read.

T1 sequence (P80457 whole entry): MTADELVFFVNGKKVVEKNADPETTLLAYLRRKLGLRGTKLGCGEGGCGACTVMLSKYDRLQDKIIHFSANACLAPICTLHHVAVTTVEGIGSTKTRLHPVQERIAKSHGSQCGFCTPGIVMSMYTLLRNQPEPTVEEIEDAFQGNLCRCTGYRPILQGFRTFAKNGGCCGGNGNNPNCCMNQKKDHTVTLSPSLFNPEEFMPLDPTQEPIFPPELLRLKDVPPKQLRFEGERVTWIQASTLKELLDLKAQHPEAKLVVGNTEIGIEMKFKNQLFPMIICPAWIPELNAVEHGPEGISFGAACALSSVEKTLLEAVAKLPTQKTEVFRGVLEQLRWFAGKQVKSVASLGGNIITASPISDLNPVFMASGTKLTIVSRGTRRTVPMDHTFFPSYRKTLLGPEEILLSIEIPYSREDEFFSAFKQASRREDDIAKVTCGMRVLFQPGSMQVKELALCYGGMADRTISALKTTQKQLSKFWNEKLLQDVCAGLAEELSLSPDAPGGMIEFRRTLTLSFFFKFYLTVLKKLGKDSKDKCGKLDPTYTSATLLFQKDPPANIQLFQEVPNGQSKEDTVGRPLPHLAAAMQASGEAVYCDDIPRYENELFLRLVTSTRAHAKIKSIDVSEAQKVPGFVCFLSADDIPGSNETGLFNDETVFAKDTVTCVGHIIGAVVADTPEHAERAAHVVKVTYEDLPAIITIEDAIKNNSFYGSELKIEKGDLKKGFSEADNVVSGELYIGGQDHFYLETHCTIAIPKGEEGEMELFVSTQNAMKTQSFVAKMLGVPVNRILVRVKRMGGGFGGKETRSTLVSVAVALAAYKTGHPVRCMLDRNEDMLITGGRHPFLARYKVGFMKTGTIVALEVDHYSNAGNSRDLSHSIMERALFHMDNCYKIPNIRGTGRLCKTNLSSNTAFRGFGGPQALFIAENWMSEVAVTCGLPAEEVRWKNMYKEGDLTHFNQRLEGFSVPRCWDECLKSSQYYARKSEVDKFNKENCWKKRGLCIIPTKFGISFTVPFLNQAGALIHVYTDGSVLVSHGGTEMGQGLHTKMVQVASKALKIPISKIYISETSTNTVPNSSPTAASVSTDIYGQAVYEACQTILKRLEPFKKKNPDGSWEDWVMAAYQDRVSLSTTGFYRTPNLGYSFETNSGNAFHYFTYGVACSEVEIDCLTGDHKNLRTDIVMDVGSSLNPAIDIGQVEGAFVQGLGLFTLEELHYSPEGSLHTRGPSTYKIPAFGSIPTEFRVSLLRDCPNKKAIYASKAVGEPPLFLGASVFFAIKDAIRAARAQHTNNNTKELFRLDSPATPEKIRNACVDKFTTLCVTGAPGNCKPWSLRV

times less effective than SOD itself, based on IC50 values ([1]; tetrapeptide/copper ratio 1:1, IC50 = amount that gives 50% inhibition)	SOD activity (inhibition of NBT reduction) [1]	SOD activity (inhibition of NBT reduction) ([1]; listed as complex of the tetrapeptide with copper at a ratio of 1:1)	inhibition of uric acid production [2]	Molecule	time at which NBT reduction reached a maximum [3]	% Inhibition [4]	% Inhibition ([4]; listed as Histindine)	Absorbance at 532 nm ([4]; second absorbance column (copper only 0.954))
about 500 times	true SOD activity	have SOD activity	11%	1:1 tetrapeptide-copper complex: complex of L-Asp L-Ala L-His L-Lys and copper (as CuCl2), tetrapeptide/copper ratio 1:1 (DAHK; also: copper complex, peptide:Cu 1:1 (as CuCl2); UniProt P02768 25-28, looked up, fragment)	60 min			
	no SOD activity			2:1 tetrapeptide-copper complex: complex of L-Asp L-Ala L-His L-Lys and copper (as CuCl2), tetrapeptide/copper ratio 2:1 (DAHK; also: copper complex, peptide:Cu 2:1 (as CuCl2); UniProt P02768 25-28, looked up, fragment)				
				N[C@@H](Cc1c[nH]cn1)C(=O)O [Histidine, histidine]		about 20%	20.3%	0.760

Reference: EP1220870B1, “METAL-BINDING COMPOUNDS AND USES THEREFOR” (DMI Biosciences, Inc., priority 1999, dated 2001)
